Assay results as given in PubChem BioAssay (NCI).
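Test compounds were applied to cells in 96-well plates for 48 hours at 5 doses. TGI denotes the concentration required for complete inhibition of growth.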 Where a SMILES comes first, the peptide text is derived from it. [ ]: non-standard residue; d: D form. The star is where a group is joined. NMeV = CN[C@H](C(=O)O)C(C)C; X29 = COc1ccc(CN*)c(OC)c1; Octanoyl = CCCCCCCC(=O)*; dNMeA = CN[C@H](C)C(=O)O

Assays:
Assay in all cases: growth of human tumour cells (NCI), 48 h
[1] = system: LOX IMVI melanoma
[2] = system: MCF7 breast
[3] = system: SF-539 CNS
[4] = system: NCI-H522 lung
[5] = system: PC-3 prostate
[6] = system: RPMI-8226 leukemia
[7] = system: MDA-MB-435
[8] = system: NCI-H226 lung
[9] = system: UACC-62 melanoma
[10] = system: UACC-257 melanoma
[11] = system: M14 melanoma
[12] = system: RXF 393 renal
[13] = system: OVCAR-5 ovarian
[14] = system: SR leukemia
[15] = system: TK-10 renal
[16] = system: SW-620 colon
[17] = system: MDA-N

Compound	TGI [1] [µM]	TGI [2] [µM]	TGI [3] [µM]	TGI [4] [µM]	TGI [5] [µM]	TGI [6] [µM]	TGI [7] [µM]	TGI [8] [µM]	TGI [9] [µM]	TGI [10] [µM]	TGI [11] [µM]	TGI [12] [µM]	TGI [13] [µM]	TGI [14] [µM]	TGI [15] [µM]	TGI [16] [µM]	TGI [17] [µM]
CCCCCCCC(=O)N[C@H](C(=O)N[C@H](C(=O)N(C)[C@H](C(=O)N1CCC[C@H]1C(=O)N(C)[C@H](C)C(=O)NCc1ccc(OC)cc1OC)C(C)C)C(C)C)C(C)C (Octanoyl-VV[NMeV]P[dNMeA]-X29)	30.8	42.8	> 60.4	31.4	58.7	> 26.3	28.9	27.5	23.7	60.7	> 68.1	46.1	> 100	> 65.6	> 100	> 100	–
C=C(Br)CNC(=O)Nc1ccc(Cl)c(Cl)c1	43.6	–	39	57.4	48	50.7	53.2	67.4	49	–	77.5	40	92.4	62.9	62.4	> 100	> 100
CO/C(=N\N=C\c1ccc(OC)c(OC)c1)c1ccncc1	> 10	> 10	> 10	–	–	> 10	–	> 10	> 10	> 10	> 10	–	–	> 10	> 10	> 10	> 10
C=CC[C@@H](N)C(=O)N(C)[C@@H](C)[C@@H](O)c1ccccc1	> 100	–	> 100	44.2	> 100	–	> 100	> 100	> 100	> 100	> 100	–	–	–	> 100	> 100	> 100
COCc1nc(N)nc(N2N=C(C)CC2(C)C)n1	> 100	> 100	> 100	> 100	> 100	> 100	> 100	> 100	> 100	> 100	> 100	> 100	> 100	> 100	> 100	> 100	–
COc1ccc(CC2(O)C3CC4CCC2C4C3)cc1 (stereo not drawn)	> 100	> 100	–	> 100	> 100	> 100	> 100	> 100	> 100	> 100	> 100	–	> 100	> 100	> 100	> 100	–
O=C1C(Cl)=C(Nc2ccc(S(=O)(=O)O)cc2)C(=O)c2ccccc21	80	49.1	57.9	33.5	69.5	70.1	39.6	61.9	> 100	> 100	47.1	37.6	> 100	> 100	42.9	51.1	–
O=C(NC1CCCCC1NC(c1ccccc1)(c1ccccc1)c1ccccc1)C(=O)NC1CCCCC1NC(c1ccccc1)(c1ccccc1)c1ccccc1 (stereo not drawn)	> 100	> 100	> 100	> 100	> 100	> 100	> 100	> 100	–	> 100	–	–	> 100	> 100	> 100	> 100	–
CN(C)c1ccc(NN=C2SC(=Nc3ccccc3)C(=Nc3ccccc3)S2)cc1	> 100	–	> 100	> 100	> 100	> 100	> 100	> 100	> 100	> 100	–	> 100	> 100	–	> 100	> 100	> 100
C[N+](C)(C)CCc1ccccc1	> 100	–	> 100	> 100	–	> 100	–	> 100	> 100	> 100	> 100	> 100	> 100	> 100	> 100	> 100	–
CC1=NNC(=O)C1C1CC(c2c[nH]c3ccccc23)=NNC1=O (stereo not drawn)	–	–	> 100	> 100	> 100	> 100	> 100	> 100	> 100	> 100	> 100	> 100	> 100	–	> 100	> 100	> 100
O=C1CCCN1C(=O)CS(=O)(=O)c1ccccc1	> 100	–	–	> 100	> 100	> 100	> 100	> 100	> 100	> 100	> 100	> 100	> 100	> 100	> 100	> 100	> 100
O=C(O)c1ccc(C2COc3ccc(Cl)cc3C2)cc1 (stereo not drawn)	> 100	–	> 100	> 100	–	> 100	–	> 100	> 100	> 100	> 100	> 100	> 100	> 100	> 100	> 100	–
